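Assay format: 96-well plates, 48-hour exposure. Abbreviation: GI50, concentration required for 50% inhibition of growth. At the TGI there is no net growth.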
How the values were obtained:
Test in all cases: DTP human tumour cell line panel, 48 h
786-0 renal = test system: 786-0 renal
A498 renal = test system: A498 renal
ACHN renal = test system: ACHN renal
BT-549 breast = test system: BT-549 breast
CCRF-CEM leukemia = test system: CCRF-CEM leukemia
COLO 205 colon = test system: COLO 205 colon
DU-145 prostate = test system: DU-145 prostate
EKVX NSCLC = test system: EKVX NSCLC
HCC-2998 colon = test system: HCC-2998 colon
HCT-116 colon = test system: HCT-116 colon
HCT-15 colon = test system: HCT-15 colon
HL-60(TB) leukemia = test system: HL-60(TB) leukemia
HOP-62 NSCLC = test system: HOP-62 NSCLC
HOP-92 NSCLC = test system: HOP-92 NSCLC
HS 578T breast = test system: HS 578T breast
HT29 colon = test system: HT29 colon
IGROV1 ovarian = test system: IGROV1 ovarian
K-562 leukemia = test system: K-562 leukemia
KM12 colon = test system: KM12 colon
LOX IMVI melanoma = test system: LOX IMVI melanoma
M14 melanoma = test system: M14 melanoma
MCF7 breast = test system: MCF7 breast
MDA-MB-231 breast = test system: MDA-MB-231 breast
MOLT-4 leukemia = test system: MOLT-4 leukemia
NCI-H226 lung = test system: NCI-H226 lung
NCI-H23 lung = test system: NCI-H23 lung
NCI-H460 lung = test system: NCI-H460 lung
NCI-H522 lung = test system: NCI-H522 lung
NCI/ADR-RES ovarian = test system: NCI/ADR-RES ovarian
OVCAR-4 ovarian = test system: OVCAR-4 ovarian
OVCAR-5 ovarian = test system: OVCAR-5 ovarian
OVCAR-8 ovarian = test system: OVCAR-8 ovarian
PC-3 prostate = test system: PC-3 prostate
RPMI-8226 leukemia = test system: RPMI-8226 leukemia
SF-268 CNS = test system: SF-268 CNS
SF-295 CNS = test system: SF-295 CNS
SF-539 CNS = test system: SF-539 CNS
SK-MEL-2 melanoma = test system: SK-MEL-2 melanoma
SK-MEL-28 melanoma = test system: SK-MEL-28 melanoma
SK-MEL-5 melanoma = test system: SK-MEL-5 melanoma
SK-OV-3 ovarian = test system: SK-OV-3 ovarian
SN12C renal = test system: SN12C renal
SNB-19 CNS = test system: SNB-19 CNS
SNB-75 CNS = test system: SNB-75 CNS
SR leukemia = test system: SR leukemia
SW-620 colon = test system: SW-620 colon
T-47D breast = test system: T-47D breast
TK-10 renal = test system: TK-10 renal
U251 CNS = test system: U251 CNS
UACC-257 melanoma = test system: UACC-257 melanoma
UACC-62 melanoma = test system: UACC-62 melanoma

`COc1cc(-c2nc3ccccc3s2)ccc1OCCCCCOc1cc2c(cc1OC)C(=O)N1CCC[C@H]1C=N2` was tested, and the GI50 (786-0 renal) was 84.3 nM, the TGI (786-0 renal) was 380 nM and the GI50 (A498 renal) was 199 nM. It also gave a TGI (A498 renal) of 358 nM, a GI50 (ACHN renal) of 53.5 nM and a TGI (ACHN renal) of 398 nM. For the same compound, the GI50 (BT-549 breast) was 45.7 nM, the TGI (BT-549 breast) was 126 nM and the GI50 (CCRF-CEM leukemia) was 27.5 nM. The TGI (CCRF-CEM leukemia) was 2160 nM, the GI50 (COLO 205 colon) was 99.2 nM and the TGI (COLO 205 colon) was 332 nM. For the same compound, the GI50 (DU-145 prostate) was 104 nM, the TGI (DU-145 prostate) was 5310 nM and the GI50 (EKVX NSCLC) was 364 nM. For the same compound, the TGI (EKVX NSCLC) was 953 nM, the GI50 (HCC-2998 colon) was 125 nM and the TGI (HCC-2998 colon) was 300 nM. For the same compound, the GI50 (HCT-116 colon) was 38.7 nM, the TGI (HCT-116 colon) was 10100 nM and the GI50 (HCT-15 colon) was 284 nM. It also gave a TGI (HCT-15 colon) of 6020 nM, a GI50 (HL-60(TB) leukemia) of 75.7 nM and a TGI (HL-60(TB) leukemia) of 699 nM. The GI50 (HOP-62 NSCLC) was 85.1 nM, the TGI (HOP-62 NSCLC) was 950 nM and the GI50 (HOP-92 NSCLC) was 100 nM. For the same compound, the TGI (HOP-92 NSCLC) was 397 nM, the GI50 (HS 578T breast) was 219 nM and the TGI (HS 578T breast) was 600 nM. It also gave a GI50 (HT29 colon) of 83.7 nM, a TGI (HT29 colon) of 4270 nM and a GI50 (IGROV1 ovarian) of 244 nM. For the same compound, the GI50 (K-562 leukemia) was 32.1 nM, the TGI (K-562 leukemia) was 2230 nM and the GI50 (KM12 colon) was 206 nM. The TGI (KM12 colon) was 1600 nM, the GI50 (LOX IMVI melanoma) was 129 nM and the TGI (LOX IMVI melanoma) was 7970 nM. For the same compound, the GI50 (M14 melanoma) was 76.2 nM, the TGI (M14 melanoma) was 257 nM and the GI50 (MCF7 breast) was 32.4 nM. It also gave a TGI (MCF7 breast) of 701 nM, a GI50 (MDA-MB-231 breast) of 145 nM and a TGI (MDA-MB-231 breast) of 1970 nM. It also gave a GI50 (MOLT-4 leukemia) of 41.3 nM, a TGI (MOLT-4 leukemia) of 2270 nM and a GI50 (NCI-H226 lung) of 212 nM. The TGI (NCI-H226 lung) was 528 nM, the GI50 (NCI-H23 lung) was 114 nM and the TGI (NCI-H23 lung) was 365 nM. For the same compound, the GI50 (NCI-H460 lung) was 76.8 nM, the TGI (NCI-H460 lung) was 2060 nM and the GI50 (NCI-H522 lung) was 97.4 nM. The TGI (NCI-H522 lung) was 1140 nM, the GI50 (NCI/ADR-RES ovarian) was 376 nM and the TGI (NCI/ADR-RES ovarian) was 4760 nM. For the same compound, the GI50 (OVCAR-4 ovarian) was 264 nM, the GI50 (OVCAR-5 ovarian) was 154 nM and the TGI (OVCAR-5 ovarian) was 7870 nM. For the same compound, the GI50 (OVCAR-8 ovarian) was 168 nM, the TGI (OVCAR-8 ovarian) was greater than 69800 nM and the GI50 (PC-3 prostate) was 103 nM. The TGI (PC-3 prostate) was 665 nM, the GI50 (RPMI-8226 leukemia) was 97.2 nM and the TGI (RPMI-8226 leukemia) was 424 nM. It also gave a GI50 (SF-268 CNS) of 305 nM, a TGI (SF-268 CNS) of 3530 nM and a GI50 (SF-295 CNS) of 140 nM. It also gave a TGI (SF-295 CNS) greater than 63300 nM, a GI50 (SF-539 CNS) of 86.4 nM and a TGI (SF-539 CNS) of 286 nM. The GI50 (SK-MEL-2 melanoma) was 201 nM, the TGI (SK-MEL-2 melanoma) was 463 nM and the GI50 (SK-MEL-28 melanoma) was 255 nM. It also gave a GI50 (SK-MEL-5 melanoma) of 59 nM, a TGI (SK-MEL-5 melanoma) of 135 nM and a GI50 (SK-OV-3 ovarian) of 177 nM. For the same compound, the TGI (SK-OV-3 ovarian) was 674 nM, the GI50 (SN12C renal) was 256 nM and the TGI (SN12C renal) was 4540 nM. It also gave a GI50 (SNB-19 CNS) of 213 nM, a TGI (SNB-19 CNS) of 4610 nM and a GI50 (SNB-75 CNS) of 191 nM. The TGI (SNB-75 CNS) was 779 nM, the GI50 (SR leukemia) was less than 13.2 nM and the GI50 (SW-620 colon) was 91.2 nM. The TGI (SW-620 colon) was 1030 nM, the GI50 (T-47D breast) was 40.7 nM and the TGI (T-47D breast) was 160 nM. It also gave a GI50 (TK-10 renal) of 334 nM, a TGI (TK-10 renal) of 14100 nM and a GI50 (U251 CNS) of 63.2 nM. The TGI (U251 CNS) was 7140 nM, the GI50 (UACC-257 melanoma) was 253 nM and the TGI (UACC-257 melanoma) was 1170 nM. It also gave a GI50 (UACC-62 melanoma) of 114 nM and a TGI (UACC-62 melanoma) of 265 nM.

Source: PubChem BioAssay (NCI)
